# Source: US12466839B2, “Allosteric AKT inhibitors for use in the treatment of Hereditary Hemorrhagic Telangiectasia” (VADERIS THERAPEUTICS AG, priority 2020, dated 2025)
# Columns and labels:
# AKT2 = AKT2 (Homo sapiens, UniProt P31751); experiment: Panel of 450 kinases; format: biochemical
# [1] = test system: AKT kinase in Pi3Kα or PTEN mutant cells lines (e.g. MCF7, BT474 or LnCAP); experiment: AKT kinase inhibition in Pi3Kα or PTEN mutant cell lines; format: cell-based; conditions: read-out: IC50 range for AKT kinase inhibition
# 5-HT2B = molecular target: T1, 5-HT2B (Homo sapiens, UniProt P41595); experiment: Millipore Drug Discovery Safety and Liability Panel; format: cell-based
# T1 construct: purchased Millipore
# T1 sequence (P41595 whole entry, species assumed): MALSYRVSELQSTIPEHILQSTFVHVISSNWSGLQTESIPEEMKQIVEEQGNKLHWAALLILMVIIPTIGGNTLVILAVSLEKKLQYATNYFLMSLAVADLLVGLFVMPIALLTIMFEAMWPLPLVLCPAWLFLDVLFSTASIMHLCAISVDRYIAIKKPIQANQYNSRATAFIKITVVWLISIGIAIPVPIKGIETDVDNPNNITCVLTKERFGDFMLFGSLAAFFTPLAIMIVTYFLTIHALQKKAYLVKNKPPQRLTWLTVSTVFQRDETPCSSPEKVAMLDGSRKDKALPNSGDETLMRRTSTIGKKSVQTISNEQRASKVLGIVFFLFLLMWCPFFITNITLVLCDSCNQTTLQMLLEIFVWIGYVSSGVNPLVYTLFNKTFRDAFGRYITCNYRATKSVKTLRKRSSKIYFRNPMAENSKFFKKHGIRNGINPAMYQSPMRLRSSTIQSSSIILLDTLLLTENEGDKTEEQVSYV
# CCR2B = molecular target: T2, CCR2B (Homo sapiens, UniProt P41597); experiment: as above; format: cell-based
# T2 construct: purchased Millipore
# T2 sequence (P41597 1-360 isoform P41597-2): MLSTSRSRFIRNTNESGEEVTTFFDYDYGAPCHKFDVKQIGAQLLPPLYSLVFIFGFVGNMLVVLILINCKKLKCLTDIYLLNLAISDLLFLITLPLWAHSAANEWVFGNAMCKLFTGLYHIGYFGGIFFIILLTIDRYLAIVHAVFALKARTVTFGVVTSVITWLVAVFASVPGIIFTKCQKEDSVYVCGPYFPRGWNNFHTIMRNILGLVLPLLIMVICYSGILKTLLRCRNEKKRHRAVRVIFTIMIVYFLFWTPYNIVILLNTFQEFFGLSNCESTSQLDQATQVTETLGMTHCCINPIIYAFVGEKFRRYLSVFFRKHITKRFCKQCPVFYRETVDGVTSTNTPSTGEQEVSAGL
# DP = molecular target: T3, DP (Homo sapiens, UniProt Q13258); experiment: as above; format: cell-based
# T3 construct: purchased Millipore
# T3 sequence (Q13258 whole entry): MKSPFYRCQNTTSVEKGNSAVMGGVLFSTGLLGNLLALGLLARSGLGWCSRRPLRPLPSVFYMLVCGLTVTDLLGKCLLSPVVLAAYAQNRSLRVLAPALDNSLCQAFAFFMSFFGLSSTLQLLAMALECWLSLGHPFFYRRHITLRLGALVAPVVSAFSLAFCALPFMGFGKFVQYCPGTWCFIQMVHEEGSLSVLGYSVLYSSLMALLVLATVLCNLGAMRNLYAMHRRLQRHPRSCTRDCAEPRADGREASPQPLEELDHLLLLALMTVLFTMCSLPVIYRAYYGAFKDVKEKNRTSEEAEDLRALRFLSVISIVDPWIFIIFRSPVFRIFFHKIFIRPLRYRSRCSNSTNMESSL
# EP3 = molecular target: T4, EP3 (Homo sapiens, UniProt P43115); experiment: as above; format: cell-based
# T4 construct: purchased Millipore
# T4 sequence (P43115 whole entry): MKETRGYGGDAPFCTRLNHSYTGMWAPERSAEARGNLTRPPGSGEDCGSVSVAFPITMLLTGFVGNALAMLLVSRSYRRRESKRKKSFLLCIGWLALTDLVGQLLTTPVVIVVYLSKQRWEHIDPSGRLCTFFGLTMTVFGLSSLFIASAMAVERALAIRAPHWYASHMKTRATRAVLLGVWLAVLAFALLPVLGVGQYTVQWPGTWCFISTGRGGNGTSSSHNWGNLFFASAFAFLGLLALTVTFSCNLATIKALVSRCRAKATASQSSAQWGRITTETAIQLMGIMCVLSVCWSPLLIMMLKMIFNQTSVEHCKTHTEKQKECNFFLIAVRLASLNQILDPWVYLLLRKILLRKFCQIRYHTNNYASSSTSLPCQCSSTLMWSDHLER
# PK1 = molecular target: T5, PK1 (Homo sapiens, UniProt Q8TCW9); experiment: as above; format: cell-based
# T5 construct: Millipore
# T5 sequence (Q8TCW9 whole entry): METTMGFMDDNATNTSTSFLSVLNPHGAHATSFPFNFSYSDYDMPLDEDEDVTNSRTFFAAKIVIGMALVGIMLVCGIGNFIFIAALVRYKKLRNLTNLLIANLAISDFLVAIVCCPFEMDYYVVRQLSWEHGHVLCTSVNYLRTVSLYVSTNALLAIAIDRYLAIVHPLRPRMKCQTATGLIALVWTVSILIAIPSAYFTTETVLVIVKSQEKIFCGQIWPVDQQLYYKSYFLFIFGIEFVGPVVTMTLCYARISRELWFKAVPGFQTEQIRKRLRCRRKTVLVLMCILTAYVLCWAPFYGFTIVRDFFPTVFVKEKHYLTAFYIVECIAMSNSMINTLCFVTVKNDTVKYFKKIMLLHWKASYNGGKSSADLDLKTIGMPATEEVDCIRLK
# VPAC2 = molecular target: T6, VPAC2 (Homo sapiens, UniProt P41587); experiment: as above; format: cell-based
# T6 construct: Millipore
# T6 sequence (P41587 24-438): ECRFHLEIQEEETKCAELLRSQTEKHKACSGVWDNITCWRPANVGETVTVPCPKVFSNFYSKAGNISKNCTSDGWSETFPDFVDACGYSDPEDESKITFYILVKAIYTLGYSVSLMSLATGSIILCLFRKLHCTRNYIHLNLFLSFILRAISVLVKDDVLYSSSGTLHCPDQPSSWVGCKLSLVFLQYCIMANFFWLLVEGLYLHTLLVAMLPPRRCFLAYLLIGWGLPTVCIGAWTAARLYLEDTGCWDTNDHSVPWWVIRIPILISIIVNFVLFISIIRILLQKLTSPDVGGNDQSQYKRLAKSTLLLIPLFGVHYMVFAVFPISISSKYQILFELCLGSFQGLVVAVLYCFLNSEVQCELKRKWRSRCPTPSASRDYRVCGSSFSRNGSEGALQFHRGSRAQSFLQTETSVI
# [2] = read-out: ANTAGONIST mean % inhibition
# Chain of AKT2 (P31751 whole entry): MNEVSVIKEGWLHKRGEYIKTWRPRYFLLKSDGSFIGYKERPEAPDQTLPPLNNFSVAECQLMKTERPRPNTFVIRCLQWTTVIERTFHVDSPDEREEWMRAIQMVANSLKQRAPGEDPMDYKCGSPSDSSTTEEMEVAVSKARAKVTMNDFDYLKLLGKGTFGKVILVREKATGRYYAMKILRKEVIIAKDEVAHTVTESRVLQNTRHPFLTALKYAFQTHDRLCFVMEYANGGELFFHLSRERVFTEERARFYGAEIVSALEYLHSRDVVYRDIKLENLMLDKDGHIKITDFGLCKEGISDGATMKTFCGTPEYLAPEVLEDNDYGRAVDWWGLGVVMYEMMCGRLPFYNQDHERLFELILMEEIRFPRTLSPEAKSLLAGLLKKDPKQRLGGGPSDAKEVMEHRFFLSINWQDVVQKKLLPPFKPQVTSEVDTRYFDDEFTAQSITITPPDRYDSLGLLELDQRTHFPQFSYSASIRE
structure (smiles),measurement,setting,value
"CCN1C(=O)COc2nc(-c3ccc(C4(N)CC(O)C4)cc3)c(-c3ccccc3)cc21.O=C(O)C(O)C(O)C(=O)O [VAD044, 6-(4-(1-amino-3-hydroxycyclobutyl)phenyl)-1-ethyl-7-phenyl-1H-pyrido[2,3-b][1,4]oxazin-2(3H)-one L-tartrate]",inhibition at 10 µM,AKT2,95%
same,IC50,[1],50 to 130 nM
same,activation at 10 µM,5-HT2B; read-out: AGONIST mean % increase in activity,3.7%
same,inhibition at 10 µM,5-HT2B; [2],7.6%
same,activation at 10 µM,"CCR2B; CCR2B, 10 μM, read-out: AGONIST mean % increase in activity",-0.1%
same,inhibition at 10 µM,CCR2B; [2],9.1%
same,activation at 10 µM,"DP; DP, 10 μM, read-out: AGONIST mean % increase in activity",-1.7%
same,inhibition at 10 µM,DP; [2],5.8%
same,activation at 10 µM,"EP3; EP3, 10 μM, read-out: AGONIST mean % increase in activity",-0.1%
same,inhibition at 10 µM,EP3; [2],9.2%
same,inhibition at 10 µM,"PK1; PK-1, read-out: ANTAGONIST mean % inhibition",-2.1%
same,activation at 10 µM,"PK1; PK-1, PK1, 10 μM, read-out: AGONIST mean % increase in activity",0%
same,activation at 10 µM,"VPAC2; VPAC2, 10 μM, read-out: AGONIST mean % increase in activity",0%
same,inhibition at 10 µM,VPAC2; [2],6.2%
